Test results from publication PMC6072100, “Exploring the links between peptoid antibacterial activity and toxicity” (MedChemComm, 2017).
Where two headings read alike, the source gives them in different places. Square brackets hold non-standard residues; d marks the D form. Ends that are not written are not given here. Peptide text beside a SMILES is read from it. Nspe = C[C@H](NCC(=O)O)c1ccccc1; NhArg = N=C(N)NCCCCNCC(=O)O; Nphe = O=C(O)CNCc1ccccc1; Nlys = NCCCCNCC(=O)O

What was measured:
[1] = Skin cell toxicity assay with HaCaT (alamarBlue); format: cell-based, human; conditions: human, HaCaT cells (keratinocytes), ED50 HaCaT
Protocol: (§1) The activity of our peptoid library was assessed against both bacterial and mammalian cells to gain a broader understanding of the factors that lead to effective and selective antimicrobial peptoids. We screened for broad-spectrum antibacterial activity against Gram-negative (Escherichia coli and Pseudomonas aeruginosa) and Gram-positive (Staphylococcus aureus and S. epidermidis) bacteria. The toxicity of the library was also assessed against two mammalian cell lines; HaCaT spontaneously transformed aneuploid keratinocytes were employed to model toxicity against human skin cells and HepG2, a cell line derived from a human liver carcinoma, were used as a study on polarised human hepatocytes. Detailed methods for these assays can be found in the ESI. ^‡ […]
(§2) Please note – ED50, the median effective dose, was defined as the dose that kills 50% of cells.
(§3) Cytotoxicity analyses were performed in 96-well plates (Costar, Fisher Scientific) using alamarBlue® (Invitrogen) for cell viability detection using a modified protocol as described previously. HepG2 or HaCaT cells were subcultured at 37 °C, 5% CO2 in DMEM high glucose supplemented with heat-inactivated foetal bovine sera (FBS, 10%; Biosera Ltd) and penicillin/streptomycin (P/S, 1%). Cells were counted using a Neubauer Improved Haemocytometer. HepG2 cells were seeded 1 day prior to treatment in 96 well plates at a concentration of 2 × 10^5 cells per mL in 100 μL of medium (2 × 10^4 cells per well). Then cells were pre-incubated with the compounds in triplicate in a dilution series in triplicate from 2–100 μM (5 mM stock solutions in DMSO diluted from 100 μM to 3 μM; untreated cells with DMSO as a negative control) in 50 μl of the media for 1 hour. Afterwards, 40 μL were removed from each well before the addition of 90 μL of the media, followed by incubation for 24 hours at 37 °C, 5% CO2. Then, 10 μL of alamarBlue® (Invitrogen) was added to each well before a 2 hour incubation prior to assessing cell viability using a fluorescent plate reader (Biotek; Ex 560 nm/Em 600 nm). All data were measured in triplicate on a minimum of two occasions to ensure a robust data set was collected. The ED50 values were calculated from the dose response results achieved from the serial dilutions. […]
(§4) Cells were counted using a Neubauer Improved
(§5) Haemocytometer. […]
(§6) µM to 3 µM; untreated cells with DMSO as a negative control) in 50 µl of the media for 1 hour.
(§7) Afterwards, 40 µL were removed from each well before the addition of 90 µL of the media, followed by incubation for 24 hours at 37 °C, 5% CO2. Then, 10 µL of alamarBlue® (Invitrogen) was added to each well before a 2 hour incubation prior to assessing cell viability using a fluorescent plate reader (Biotek; Ex 560 nm / Em 600 nm). All data was measured in triplicate on a minimum of two occasions to ensure a robust data set was collected. The ED50 values were calculated from the dose response results achieved from the serial dilutions.
(§8) Skin Cell Toxicity assay with HaCaT […]
(§9) alamarBlue® (Invitrogen) for cell viability detection. HaCaT cells were subcultured at 37 °C, 5% CO2 in DMEM high glucose supplemented with heat-inactivated foetal bovine sera (FBS, 10%; Biosera Ltd) and penicillin/streptomycin (P/S, 1%). Cells were counted using a Neubauer Improved Haemocytometer. HaCaT cells were seeded in the plates 24 hours prior to treatment in 96 well plates at a concentration of 2x10^5 cells/mL in 100 µL of medium (2x10^4 cells/well).
(§10) Empty wells were filled with 100 µL PBS. After 24 hours, cells were incubated with the compounds in a dilution series in triplicate from 2 – 100 µM (5 mM stock solutions in DMSO diluted from 100 µM to 3 µM; Amphotericin B was used as a positive control and untreated cells with DMSO as a negative control) in 50 µL of the media for 1 hour. Afterwards, 40 µl was removed from each well, 90 µL of medium was added to each well and the cells incubated for 24 hours at 37 °C, 5% CO2. 10 µL of alamarBlue® (Invitrogen) was added to each well before […]

HaCaT cells = assay: Skin cell toxicity assay with HaCaT (alamarBlue); format: cell-based, human; conditions: human, HaCaT cells (keratinocytes), 24 h
Protocol: as §1, §2, §3, §4, §5, §6, §7, §8, §9, §10

[2] = tested on: Escherichia coli K-12 wild-type strain (W3110/ATCC27325); format: cell-based; conditions: lowest concentration completely inhibiting growth, 37 °C, 16 h; range 2–100 μM
Protocol: (§11) Escherichia coli K-12 wild-type strain (W3110/ATCC27325, F^–, λ^–, rpoS(Am), rph-1, Inv(rrnD-rrnE)), Pseudomonas aeruginosa PA01 (ATCC 15692) Staphylococcus aureus (3R7089 strain Oxford/ATCC9144) and Staphylococcus epidermidis (laboratory strain from clinical isolate) were selected for bacteriological studies as representative Gram-negative (E. coli and P. aeruginosa) and Gram-positive (S. aureus and S. epidermidis) species. Bacterial cultures were prepared by streaking bacterial strains onto LB agar plates with an inoculation loop and incubated overnight at 37 °C. A single colony was selected and placed in 5 mL of Iso-sensitest broth (Oxoid, ThermoScientific) and incubated with shaking for 16–18 h at 37 °C to provide liquid cultures for testing.
(§12) MIC values were obtained according to the protocol described by J. M. Andrews et al.[58] and were conducted in 96-well plates (Sarstedt). Bacteria were grown from overnight cultures in Iso-sensitest broth to an A650nm of 0.07 equivalent to a 0.5 MacFarland standard (240 μM BaCl2 in 0.18 M H2SO4). This culture was diluted ten-fold with Iso-sensitest broth before use. Peptoids were initially dissolved in DMSO (5 mM) and diluted further in Iso-sensitest broth to achieve a concentration range of 4–200 μM using 2-fold serial dilutions. 50 μl of inoculum and 50 μl of peptoid solution were added to each test well (final concentration range of 2–100 μM). Experiments were performed in triplicate. A positive control for bacterial growth contained only the inoculum and Iso-sensitest broth. Other controls contained the inoculum and serial dilutions of ampicillin (from 250 μg mL^–1 to 2 μg mL^–1), serial dilutions of DMSO and the inoculum to confirm no inhibitory effect on bacterial growth, and Iso-sensitest broth alone as a sterile control. […] Quantitative data was attained from absorbance values using a Biotek Synergy H4 plate reader.
(§13) Antibacterial MIC determination
as §11, with “(W3110 / ATCC27325, F-, λ-,” for “(W3110/ATCC27325, F^–, λ^–,”, “Oxford / ATCC9144)” for “Oxford/ATCC9144)”, “°C.” for “°C. A single colony was selected and placed in 5 mL of Iso-sensitest broth (Oxoid, ThermoScientific) and incubated with shaking for 16–18 h at 37 °C to provide liquid cultures for testing.”
(§14) A single colony was selected and placed in 5 mL of Iso-sensitest broth (Oxoid, ThermoScientific) and incubated with shaking for 16-18 h at 37 °C to provide liquid […]
(§15) MIC values were obtained according to the protocol described by J. M. Andrews et al.1 and were conducted in 96-well plates (Sarstedt). Bacteria were grown from overnight cultures in Iso-sensitest broth to an A650nm of 0.07 equivalent to a 0.5 MacFarland standard (240 μM BaCl2 in 0.18 M H2SO4). This culture was diluted ten-fold with Iso-sensitest broth before use. Peptoids were initially dissolved in DMSO (5 mM) and diluted further in Iso-sensitest broth to achieve a concentration range of 4 – 200 µM using 2-fold serial dilutions. 50 μl of inoculum and 50 μl of peptoid solution were added to each test well (final concentration range of 2 – 100 µM). Experiments were performed in triplicate. A positive control for bacterial growth contained only the inoculum and Iso-sensitest broth. Other controls contained the inoculum and serial dilutions of ampicillin (from 250 µg/mL to 2 µg/mL), serial dilutions of DMSO and the inoculum to confirm no inhibitory effect on bacterial growth, and Iso-sensitest broth alone as a sterile control. […]
(§16) growth after incubation at 37 °C for 16 h with shaking. Quantitative data was attained from absorbance values using a Biotek Synergy H4 plate reader.

[3] = tested on: Pseudomonas aeruginosa PA01 (ATCC 15692); format: cell-based; conditions: lowest concentration completely inhibiting growth, 37 °C, 16 h; range 2–100 μM
Protocol: as §11, §12, §13
as §11, with “(W3110 / ATCC27325, F-, λ-,” for “(W3110/ATCC27325, F^–, λ^–,”, “Oxford / ATCC9144)” for “Oxford/ATCC9144)”, “°C.” for “°C. A single colony was selected and placed in 5 mL of Iso-sensitest broth (Oxoid, ThermoScientific) and incubated with shaking for 16–18 h at 37 °C to provide liquid cultures for testing.”
as §14, §15, §16

[4] = tested on: Staphylococcus epidermidis (laboratory strain from clinical isolate); format: cell-based; conditions: lowest concentration completely inhibiting growth, 37 °C, 16 h; range 2–100 μM
Protocol: as §11, §12, §13
as §11, with “(W3110 / ATCC27325, F-, λ-,” for “(W3110/ATCC27325, F^–, λ^–,”, “Oxford / ATCC9144)” for “Oxford/ATCC9144)”, “°C.” for “°C. A single colony was selected and placed in 5 mL of Iso-sensitest broth (Oxoid, ThermoScientific) and incubated with shaking for 16–18 h at 37 °C to provide liquid cultures for testing.”
as §14, §15, §16

[5] = tested on: Staphylococcus aureus (3R7089 strain Oxford/ATCC9144); format: cell-based; conditions: lowest concentration completely inhibiting growth, 37 °C, 16 h; range 2–100 μM
Protocol: as §11, §12, §13
as §11, with “(W3110 / ATCC27325, F-, λ-,” for “(W3110/ATCC27325, F^–, λ^–,”, “Oxford / ATCC9144)” for “Oxford/ATCC9144)”, “°C.” for “°C. A single colony was selected and placed in 5 mL of Iso-sensitest broth (Oxoid, ThermoScientific) and incubated with shaking for 16–18 h at 37 °C to provide liquid cultures for testing.”
as §14, §15, §16

E. coli [6] = tested on: E. coli; parameters: method as in PMID 10681325, PMID 3299384; conditions: cited from earlier work
S. epidermidis = tested on: S. epidermidis; parameters: method as in PMID 10681325, PMID 3299384; conditions: cited from earlier work
S. aureus = tested on: S. aureus; parameters: method as in PMID 10681325, PMID 3299384; conditions: cited from earlier work
E. coli [7] = tested on: E. coli; parameters: method as in PMID 10681325; conditions: cited from earlier work

N=C(N)NCCCCNCC(=O)N(CC(=O)N(CC(=O)N(CCCCNC(=N)N)CC(=O)N(CC(=O)N(CC(=O)N(CCCCNC(=N)N)CC(=O)N(CC(=O)N(CC(=O)N(CCCCNC(=N)N)CC(=O)N(CC(=O)N(CC(N)=O)Cc1ccccc1)Cc1ccccc1)Cc1ccccc1)Cc1ccccc1)Cc1ccccc1)Cc1ccccc1)Cc1ccccc1)Cc1ccccc1 [Peptoid 33, (NhArgNpheNphe)4] (H-[NhArg][Nphe][Nphe][NhArg][Nphe][Nphe][NhArg][Nphe][Nphe][NhArg][Nphe][Nphe]-NH2)
CC50 at 24 h [1]: 100 µM
ED50 HaCaT (HaCaT cells): >100 µM
MIC E. coli [2]: 6 µM
MIC P. aeruginosa [3]: 25 µM
MIC S. epidermidis [4]: 2 µM

C[C@@H](c1ccccc1)N(CC(N)=O)C(=O)CN(C(=O)CN(CCCCNC(=N)N)C(=O)CN(C(=O)CN(C(=O)CN(CCCCNC(=N)N)C(=O)CN(C(=O)CN(C(=O)CN(CCCCN)C(=O)CN(C(=O)CN(C(=O)CNCCCCN)[C@@H](C)c1ccccc1)[C@@H](C)c1ccccc1)[C@@H](C)c1ccccc1)[C@@H](C)c1ccccc1)[C@@H](C)c1ccccc1)[C@@H](C)c1ccccc1)[C@@H](C)c1ccccc1 [Peptoid 41, (NLysNspeNspe)2(NhArgNspeNspe)2] (H-[Nlys][Nspe][Nspe][Nlys][Nspe][Nspe][NhArg][Nspe][Nspe][NhArg][Nspe][Nspe]-NH2)
CC50 at 24 h [1]: 100 µM
ED50 HaCaT (HaCaT cells): >100 µM
MIC E. coli [2]: 17 µM
MIC P. aeruginosa [3]: 34 µM
MIC S. aureus [5]: 17 µM

Magainin 2
MIC E. coli (E. coli [6]): 5 μg mL^–1
MIC E. coli (E. coli [6]; value in brackets, in μM): 2 µM
MIC S. epidermidis (S. epidermidis): 10 μg mL^–1
MIC S. epidermidis (S. epidermidis; value in brackets, in μM): 4 µM
MIC S. aureus (S. aureus): 50 μg mL^–1
MIC S. aureus (S. aureus; value in brackets, in μM): 20 µM

cecropin A (KWKLFKKIEKVGQNIRDGIIKAGPAVAVVGQATQIAK; ends and bridges not checked; UniProt P01507 27-63, looked up) [natural antimicrobial peptide (AMP) described in the literature]
concentration shown to kill 90% of E. coli (E. coli [7]): 2 µM
